In article PMC10905675, “INX-315, a Selective CDK2 Inhibitor, Induces Cell Cycle Arrest and Senescence in Solid Tumors” (Cancer Discovery, 2023):

Key:
Test in all cases: SelectScreen LanthaScreen Binding
Conditions in all cases: INX-0315 at 100nM
AAK1 = molecular target: T1, AAK1 (Homo sapiens, UniProt Q2M2I8)
T1 construct: purchased Thermo Fisher Scientific SelectScreen (plus Nanosyn / Reaction Biology for CDK/cyclin lines)
Source text: (§1) INX-315 was first evaluated in the SelectScreen Biochemical Kinase Profiling at Thermo Fisher Scientific (Madison, WI). The primary screen consisted of INX-315 dosed at a single concentration of 100 nmol/L in 1% DMSO across each platform within the SelectScreen array of assays, LanthaScreen Eu Kinase Binding Assay; AdaptaScreen; and Z'LyteScreen using preestablished conditions at Thermo Fisher Scientific as shown in Supplementary Table S2. […] The follow-up screen consisted of 10-point dose–response curves for INX-315 from 1 µmol/L to 0.0495 nmol/L.

ABL1 Q252H = molecular target: T2, ABL1 Q252H (Homo sapiens, UniProt P00519, Q252H)
T2 construct: purchased Thermo Fisher Scientific SelectScreen (plus Nanosyn / Reaction Biology for CDK/cyclin lines)
Source text: as §1

ACVR1 (ALK2) = molecular target: T3, ACVR1 (ALK2) (Homo sapiens, UniProt Q04771)
T3 construct: purchased Thermo Fisher Scientific SelectScreen (plus Nanosyn / Reaction Biology for CDK/cyclin lines)
Source text: as §1

ACVR2A = molecular target: T4, ACVR2A (Homo sapiens, UniProt P27037)
T4 construct: purchased Thermo Fisher Scientific SelectScreen (plus Nanosyn / Reaction Biology for CDK/cyclin lines)
Source text: as §1

ALK L1196M = molecular target: T5, ALK L1196M (Homo sapiens, UniProt Q9UM73, L1196M)
T5 construct: purchased Thermo Fisher Scientific SelectScreen (plus Nanosyn / Reaction Biology for CDK/cyclin lines)
Source text: as §1

ALK R1275Q = molecular target: T6, ALK R1275Q (Homo sapiens, UniProt Q9UM73, R1275Q)
T6 construct: purchased Thermo Fisher Scientific SelectScreen (plus Nanosyn / Reaction Biology for CDK/cyclin lines)
Source text: as §1

ANKK1 = molecular target: T7, ANKK1 (Homo sapiens, UniProt Q8NFD2)
T7 construct: purchased Thermo Fisher Scientific SelectScreen (plus Nanosyn / Reaction Biology for CDK/cyclin lines)
Source text: as §1

BMPR1A (ALK3) = molecular target: T8, BMPR1A (ALK3) (Homo sapiens, UniProt P36894)
T8 construct: purchased Thermo Fisher Scientific SelectScreen (plus Nanosyn / Reaction Biology for CDK/cyclin lines)
Source text: as §1

CASK = molecular target: T9, CASK (Homo sapiens, UniProt O14936)
T9 construct: purchased Thermo Fisher Scientific SelectScreen (plus Nanosyn / Reaction Biology for CDK/cyclin lines)
Source text: as §1

CDC7/DBF4 = molecular target: T10, CDC7/DBF4 (Homo sapiens, UniProt O00311)
T10 construct: purchased Thermo Fisher Scientific SelectScreen (plus Nanosyn / Reaction Biology for CDK/cyclin lines)
Source text: as §1

CDK2/cyclin O = molecular target: T11, CDK2/cyclin O (Homo sapiens, UniProt P24941)
T11 construct: purchased Thermo Fisher Scientific SelectScreen (plus Nanosyn / Reaction Biology for CDK/cyclin lines)
Source text: as §1

DMPK = molecular target: T12, DMPK (Homo sapiens, UniProt Q09013)
T12 construct: purchased Thermo Fisher Scientific SelectScreen (plus Nanosyn / Reaction Biology for CDK/cyclin lines)
Source text: as §1

EGFR (ErbB1) d746-750 = molecular target: T13, EGFR (ErbB1) d746-750 (Homo sapiens, UniProt P00533, DEL746-750)
T13 construct: purchased Thermo Fisher Scientific SelectScreen (plus Nanosyn / Reaction Biology for CDK/cyclin lines)
Source text: as §1

EIF2AK2 (PKR) = molecular target: T14, EIF2AK2 (PKR) (Homo sapiens, UniProt P19525)
T14 construct: purchased Thermo Fisher Scientific SelectScreen (plus Nanosyn / Reaction Biology for CDK/cyclin lines)
Source text: as §1

ERN1 = molecular target: T15, ERN1 (Homo sapiens, UniProt O75460)
T15 construct: purchased Thermo Fisher Scientific SelectScreen (plus Nanosyn / Reaction Biology for CDK/cyclin lines)
Source text: as §1

ERN2 = molecular target: T16, ERN2 (Homo sapiens, UniProt Q76MJ5)
T16 construct: purchased Thermo Fisher Scientific SelectScreen (plus Nanosyn / Reaction Biology for CDK/cyclin lines)
Source text: as §1

FGFR3 G697C = molecular target: T17, FGFR3 G697C (Homo sapiens, UniProt P22607, G697C)
T17 construct: purchased Thermo Fisher Scientific SelectScreen (plus Nanosyn / Reaction Biology for CDK/cyclin lines)
Source text: as §1

FLT3 ITD = test system: FLT3 ITD
Source text: as §1

FYN A = molecular target: T18, FYN A (Homo sapiens, UniProt P06241)
T18 construct: purchased Thermo Fisher Scientific SelectScreen (plus Nanosyn / Reaction Biology for CDK/cyclin lines)
Source text: as §1

GAK = molecular target: T19, GAK (Homo sapiens, UniProt O14976)
T19 construct: purchased Thermo Fisher Scientific SelectScreen (plus Nanosyn / Reaction Biology for CDK/cyclin lines)
Source text: as §1

KIT D816H = molecular target: T20, KIT D816H (Homo sapiens, UniProt P10721, D816H)
T20 construct: purchased Thermo Fisher Scientific SelectScreen (plus Nanosyn / Reaction Biology for CDK/cyclin lines)
Source text: as §1

KIT T670E = molecular target: T21, KIT T670E (Homo sapiens, UniProt P10721, T670E)
T21 construct: purchased Thermo Fisher Scientific SelectScreen (plus Nanosyn / Reaction Biology for CDK/cyclin lines)
Source text: as §1

KIT V559D T670I = molecular target: T22, KIT V559D T670I (Homo sapiens, UniProt P10721, T670I/V559D)
T22 construct: purchased Thermo Fisher Scientific SelectScreen (plus Nanosyn / Reaction Biology for CDK/cyclin lines)
Source text: as §1

MAP2K1 (MEK1) = molecular target: T23, MAP2K1 (MEK1) (Homo sapiens, UniProt Q02750)
T23 construct: purchased Thermo Fisher Scientific SelectScreen (plus Nanosyn / Reaction Biology for CDK/cyclin lines)
Source text: as §1

MAP3K10 (MLK2) = molecular target: T24, MAP3K10 (MLK2) (Homo sapiens, UniProt Q02779)
T24 construct: purchased Thermo Fisher Scientific SelectScreen (plus Nanosyn / Reaction Biology for CDK/cyclin lines)
Source text: as §1

MYLK (MLCK) = molecular target: T25, MYLK (MLCK) (Homo sapiens, UniProt Q15746)
T25 construct: purchased Thermo Fisher Scientific SelectScreen (plus Nanosyn / Reaction Biology for CDK/cyclin lines)
Source text: as §1

RET M918T = molecular target: T26, RET M918T (Homo sapiens, UniProt P07949, M918T)
T26 construct: purchased Thermo Fisher Scientific SelectScreen (plus Nanosyn / Reaction Biology for CDK/cyclin lines)
Source text: as §1

SLK = molecular target: T27, SLK (Homo sapiens, UniProt Q9H2G2)
T27 construct: purchased Thermo Fisher Scientific SelectScreen (plus Nanosyn / Reaction Biology for CDK/cyclin lines)
Source text: as §1

STK32B (YANK2) = molecular target: T28, STK32B (YANK2) (Homo sapiens, UniProt Q9NY57)
T28 construct: purchased Thermo Fisher Scientific SelectScreen (plus Nanosyn / Reaction Biology for CDK/cyclin lines)
Source text: as §1

STK38L (NDR2) = molecular target: T29, STK38L (NDR2) (Homo sapiens, UniProt Q9Y2H1)
T29 construct: purchased Thermo Fisher Scientific SelectScreen (plus Nanosyn / Reaction Biology for CDK/cyclin lines)
Source text: as §1

TESK1 = molecular target: T30, TESK1 (Homo sapiens, UniProt Q15569)
T30 construct: purchased Thermo Fisher Scientific SelectScreen (plus Nanosyn / Reaction Biology for CDK/cyclin lines)
Source text: as §1

TLK1 = molecular target: T31, TLK1 (Homo sapiens, UniProt Q9UKI8)
T31 construct: purchased Thermo Fisher Scientific SelectScreen (plus Nanosyn / Reaction Biology for CDK/cyclin lines)
Source text: as §1

TNK2 (ACK) = molecular target: T32, TNK2 (ACK) (Homo sapiens, UniProt Q07912)
T32 construct: purchased Thermo Fisher Scientific SelectScreen (plus Nanosyn / Reaction Biology for CDK/cyclin lines)
Source text: as §1

TTK = molecular target: T33, TTK (Homo sapiens, UniProt P33981)
T33 construct: purchased Thermo Fisher Scientific SelectScreen (plus Nanosyn / Reaction Biology for CDK/cyclin lines)
Source text: as §1

ULK2 = molecular target: T34, ULK2 (Homo sapiens, UniProt Q8IYT8)
T34 construct: purchased Thermo Fisher Scientific SelectScreen (plus Nanosyn / Reaction Biology for CDK/cyclin lines)
Source text: as §1

VRK2 = molecular target: T35, VRK2 (Homo sapiens, UniProt Q86Y07)
T35 construct: purchased Thermo Fisher Scientific SelectScreen (plus Nanosyn / Reaction Biology for CDK/cyclin lines)
Source text: as §1

WEE1 = molecular target: T36, WEE1 (Homo sapiens, UniProt P30291)
T36 construct: purchased Thermo Fisher Scientific SelectScreen (plus Nanosyn / Reaction Biology for CDK/cyclin lines)
Source text: as §1

WNK1 = molecular target: T37, WNK1 (Homo sapiens, UniProt Q9H4A3)
T37 construct: purchased Thermo Fisher Scientific SelectScreen (plus Nanosyn / Reaction Biology for CDK/cyclin lines)
Source text: as §1

WNK3 = molecular target: T38, WNK3 (Homo sapiens, UniProt Q9BYP7)
T38 construct: purchased Thermo Fisher Scientific SelectScreen (plus Nanosyn / Reaction Biology for CDK/cyclin lines)
Source text: as §1

T25 sequence (Q15746 whole entry): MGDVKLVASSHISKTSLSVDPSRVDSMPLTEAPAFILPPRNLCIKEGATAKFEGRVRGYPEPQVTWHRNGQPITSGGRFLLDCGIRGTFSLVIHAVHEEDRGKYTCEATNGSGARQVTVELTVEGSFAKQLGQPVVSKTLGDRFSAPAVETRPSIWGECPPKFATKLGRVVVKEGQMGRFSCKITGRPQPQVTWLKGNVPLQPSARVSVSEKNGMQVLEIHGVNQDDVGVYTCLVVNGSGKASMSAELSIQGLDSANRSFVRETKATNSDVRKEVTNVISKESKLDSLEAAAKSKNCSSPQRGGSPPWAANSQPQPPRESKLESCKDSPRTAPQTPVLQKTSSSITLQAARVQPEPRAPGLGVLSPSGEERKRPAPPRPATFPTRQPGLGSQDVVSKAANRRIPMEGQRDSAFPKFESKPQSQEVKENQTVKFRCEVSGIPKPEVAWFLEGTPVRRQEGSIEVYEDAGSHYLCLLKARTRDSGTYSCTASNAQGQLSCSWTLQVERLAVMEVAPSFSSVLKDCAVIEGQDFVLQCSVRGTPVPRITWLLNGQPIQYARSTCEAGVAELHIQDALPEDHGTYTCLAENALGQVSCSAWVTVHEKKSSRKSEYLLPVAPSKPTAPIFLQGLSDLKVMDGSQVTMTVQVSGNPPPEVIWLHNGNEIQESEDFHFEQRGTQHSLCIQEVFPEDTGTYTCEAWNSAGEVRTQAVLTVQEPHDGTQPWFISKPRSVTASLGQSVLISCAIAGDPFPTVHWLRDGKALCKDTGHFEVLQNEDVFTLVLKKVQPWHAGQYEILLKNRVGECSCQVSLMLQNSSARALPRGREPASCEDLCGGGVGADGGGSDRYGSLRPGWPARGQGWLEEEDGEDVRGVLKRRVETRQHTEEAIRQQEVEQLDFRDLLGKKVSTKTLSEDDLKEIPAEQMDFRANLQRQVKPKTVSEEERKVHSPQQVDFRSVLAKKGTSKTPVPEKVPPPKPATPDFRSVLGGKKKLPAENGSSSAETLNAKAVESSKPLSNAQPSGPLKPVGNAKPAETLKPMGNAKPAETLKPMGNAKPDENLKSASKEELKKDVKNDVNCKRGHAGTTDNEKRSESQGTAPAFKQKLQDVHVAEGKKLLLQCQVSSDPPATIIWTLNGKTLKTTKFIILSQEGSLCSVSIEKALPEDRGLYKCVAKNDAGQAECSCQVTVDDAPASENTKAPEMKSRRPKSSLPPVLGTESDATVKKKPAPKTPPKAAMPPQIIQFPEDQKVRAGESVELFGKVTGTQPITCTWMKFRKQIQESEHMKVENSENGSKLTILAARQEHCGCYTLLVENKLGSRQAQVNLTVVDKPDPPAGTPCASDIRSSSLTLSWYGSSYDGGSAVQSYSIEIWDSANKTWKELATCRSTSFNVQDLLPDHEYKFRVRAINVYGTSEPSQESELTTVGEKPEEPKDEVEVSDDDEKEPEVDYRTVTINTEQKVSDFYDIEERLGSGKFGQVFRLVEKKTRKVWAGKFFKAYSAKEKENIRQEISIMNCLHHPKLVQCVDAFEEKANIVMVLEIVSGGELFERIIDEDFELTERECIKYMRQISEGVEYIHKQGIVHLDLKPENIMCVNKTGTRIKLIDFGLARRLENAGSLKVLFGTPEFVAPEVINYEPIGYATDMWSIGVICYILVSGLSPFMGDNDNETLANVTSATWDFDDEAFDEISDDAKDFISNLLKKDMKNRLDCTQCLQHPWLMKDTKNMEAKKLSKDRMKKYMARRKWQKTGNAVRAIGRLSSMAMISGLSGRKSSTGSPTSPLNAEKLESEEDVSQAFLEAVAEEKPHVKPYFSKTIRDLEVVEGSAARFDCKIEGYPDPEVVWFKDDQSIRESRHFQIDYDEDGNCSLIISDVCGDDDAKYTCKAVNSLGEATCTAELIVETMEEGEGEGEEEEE
T18 sequence (P06241 whole entry): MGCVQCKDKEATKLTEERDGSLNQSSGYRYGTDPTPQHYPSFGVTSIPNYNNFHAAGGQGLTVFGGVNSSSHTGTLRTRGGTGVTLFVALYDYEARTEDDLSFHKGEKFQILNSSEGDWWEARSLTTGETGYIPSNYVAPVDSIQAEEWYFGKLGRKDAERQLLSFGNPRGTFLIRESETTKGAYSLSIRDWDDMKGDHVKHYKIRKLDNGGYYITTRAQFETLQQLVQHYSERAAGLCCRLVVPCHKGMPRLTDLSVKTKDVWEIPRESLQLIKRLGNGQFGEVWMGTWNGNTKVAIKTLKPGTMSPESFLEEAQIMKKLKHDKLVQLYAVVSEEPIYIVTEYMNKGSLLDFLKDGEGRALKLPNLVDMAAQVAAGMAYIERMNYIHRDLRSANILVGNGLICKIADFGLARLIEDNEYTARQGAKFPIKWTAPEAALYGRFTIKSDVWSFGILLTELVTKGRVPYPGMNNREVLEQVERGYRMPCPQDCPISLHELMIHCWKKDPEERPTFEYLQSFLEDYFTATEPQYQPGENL
T12 sequence (Q09013 whole entry): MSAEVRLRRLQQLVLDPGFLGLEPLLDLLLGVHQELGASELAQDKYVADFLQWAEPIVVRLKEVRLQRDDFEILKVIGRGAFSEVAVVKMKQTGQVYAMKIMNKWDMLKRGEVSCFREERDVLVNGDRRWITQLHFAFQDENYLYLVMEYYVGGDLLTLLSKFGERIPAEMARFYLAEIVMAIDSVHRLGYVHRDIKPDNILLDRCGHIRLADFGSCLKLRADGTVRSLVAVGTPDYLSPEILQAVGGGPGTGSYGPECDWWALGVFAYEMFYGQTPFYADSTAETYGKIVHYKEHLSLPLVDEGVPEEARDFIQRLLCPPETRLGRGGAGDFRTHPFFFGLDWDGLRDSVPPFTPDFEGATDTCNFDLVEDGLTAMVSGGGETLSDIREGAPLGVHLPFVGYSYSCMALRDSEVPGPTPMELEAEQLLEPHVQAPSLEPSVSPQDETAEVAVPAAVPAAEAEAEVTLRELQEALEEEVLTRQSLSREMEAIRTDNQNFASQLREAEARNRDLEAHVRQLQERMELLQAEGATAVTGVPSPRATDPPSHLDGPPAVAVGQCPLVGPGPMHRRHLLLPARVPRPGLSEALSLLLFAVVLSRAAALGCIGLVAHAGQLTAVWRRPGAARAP
T36 sequence (P30291 whole entry): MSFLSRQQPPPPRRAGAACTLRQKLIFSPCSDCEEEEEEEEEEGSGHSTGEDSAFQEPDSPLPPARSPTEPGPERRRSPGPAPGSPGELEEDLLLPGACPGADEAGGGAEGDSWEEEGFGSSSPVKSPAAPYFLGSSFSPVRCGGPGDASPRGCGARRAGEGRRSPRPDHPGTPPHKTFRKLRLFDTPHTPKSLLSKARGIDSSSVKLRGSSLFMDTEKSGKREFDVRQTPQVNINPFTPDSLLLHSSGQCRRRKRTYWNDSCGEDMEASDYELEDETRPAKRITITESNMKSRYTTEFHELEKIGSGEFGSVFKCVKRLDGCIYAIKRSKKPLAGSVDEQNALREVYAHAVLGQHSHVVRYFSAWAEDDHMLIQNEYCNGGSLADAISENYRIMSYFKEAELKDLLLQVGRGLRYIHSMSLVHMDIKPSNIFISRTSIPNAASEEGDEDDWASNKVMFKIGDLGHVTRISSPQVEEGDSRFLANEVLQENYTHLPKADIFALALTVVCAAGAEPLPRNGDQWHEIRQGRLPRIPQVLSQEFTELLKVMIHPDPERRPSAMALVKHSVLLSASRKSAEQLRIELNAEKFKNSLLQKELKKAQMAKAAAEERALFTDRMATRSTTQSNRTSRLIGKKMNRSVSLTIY
T26 sequence (P07949 29-1114 M918T): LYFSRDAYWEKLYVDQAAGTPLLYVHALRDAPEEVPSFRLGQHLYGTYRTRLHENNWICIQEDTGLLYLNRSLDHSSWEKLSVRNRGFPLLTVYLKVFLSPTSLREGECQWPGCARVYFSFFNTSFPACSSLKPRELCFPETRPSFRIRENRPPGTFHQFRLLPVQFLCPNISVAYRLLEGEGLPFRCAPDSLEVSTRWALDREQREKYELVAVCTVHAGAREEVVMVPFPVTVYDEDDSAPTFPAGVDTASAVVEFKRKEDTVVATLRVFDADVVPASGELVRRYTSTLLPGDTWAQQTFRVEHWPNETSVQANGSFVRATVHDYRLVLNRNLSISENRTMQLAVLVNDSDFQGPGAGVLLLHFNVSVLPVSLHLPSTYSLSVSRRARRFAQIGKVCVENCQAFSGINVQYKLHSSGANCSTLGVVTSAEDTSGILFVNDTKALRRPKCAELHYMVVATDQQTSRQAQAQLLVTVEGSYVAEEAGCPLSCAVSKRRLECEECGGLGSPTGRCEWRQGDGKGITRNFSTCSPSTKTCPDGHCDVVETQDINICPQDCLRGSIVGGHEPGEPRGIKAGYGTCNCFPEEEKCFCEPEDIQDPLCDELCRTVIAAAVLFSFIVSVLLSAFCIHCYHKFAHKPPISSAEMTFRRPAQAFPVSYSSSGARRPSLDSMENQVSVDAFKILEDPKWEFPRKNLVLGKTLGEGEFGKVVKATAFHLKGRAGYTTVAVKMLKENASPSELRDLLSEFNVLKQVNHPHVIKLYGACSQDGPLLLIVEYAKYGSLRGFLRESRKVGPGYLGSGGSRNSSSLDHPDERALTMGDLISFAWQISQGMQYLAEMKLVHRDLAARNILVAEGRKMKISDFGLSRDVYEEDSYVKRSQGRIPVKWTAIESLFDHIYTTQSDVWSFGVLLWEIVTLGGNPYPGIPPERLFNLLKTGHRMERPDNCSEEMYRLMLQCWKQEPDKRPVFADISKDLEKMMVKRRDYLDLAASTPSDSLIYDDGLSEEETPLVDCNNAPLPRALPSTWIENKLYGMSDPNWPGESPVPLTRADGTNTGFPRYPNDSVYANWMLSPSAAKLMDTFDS

Compound: NS(=O)(=O)c1ccc(Nc2ncc3cc4n(c3n2)C2(CCCCC2)C(=O)NN4)cc1 [INX-315]
- inhibition at 0.1 µM (AAK1): 77%
- inhibition at 0.1 µM (ABL1 Q252H): 19%
- inhibition at 0.1 µM (ACVR1 (ALK2)): -5%
- inhibition at 0.1 µM (ACVR2A): 3%
- inhibition at 0.1 µM (ALK L1196M): 7%
- inhibition at 0.1 µM (ALK R1275Q): 10%
- inhibition at 0.1 µM (ANKK1): 2%
- inhibition at 0.1 µM (BMPR1A (ALK3)): 8%
- inhibition at 0.1 µM (CASK): -3%
- inhibition at 0.1 µM (CDC7/DBF4): -1%
- inhibition at 0.1 µM (CDK2/cyclin O): 98%
- inhibition at 0.1 µM (DMPK): 6%
- inhibition at 0.1 µM (EGFR (ErbB1) d746-750): 0%
- inhibition at 0.1 µM (EIF2AK2 (PKR)): -8%
- inhibition at 0.1 µM (ERN1): 11%
- inhibition at 0.1 µM (ERN2): 2%
- inhibition at 0.1 µM (FGFR3 G697C): 13%
- % Inhibition Avg (FLT3 ITD): 36%
- inhibition at 0.1 µM (FYN A): 7%
- inhibition at 0.1 µM (GAK): 38%
- inhibition at 0.1 µM (KIT D816H): 38%
- inhibition at 0.1 µM (KIT T670E): 9%
- inhibition at 0.1 µM (KIT V559D T670I): 16%
- inhibition at 0.1 µM (MAP2K1 (MEK1)): 5%
- inhibition at 0.1 µM (MAP3K10 (MLK2)): 8%
- inhibition at 0.1 µM (MYLK (MLCK)): 6%
- inhibition at 0.1 µM (RET M918T): 42%
- inhibition at 0.1 µM (SLK): 22%
- inhibition at 0.1 µM (STK32B (YANK2)): 3%
- inhibition at 0.1 µM (STK38L (NDR2)): 0%
- inhibition at 0.1 µM (TESK1): 2%
- inhibition at 0.1 µM (TLK1): 0%
- inhibition at 0.1 µM (TNK2 (ACK)): 0%
- inhibition at 0.1 µM (TTK): 49%
- inhibition at 0.1 µM (ULK2): 3%
- inhibition at 0.1 µM (VRK2): 2%
- inhibition at 0.1 µM (WEE1): 4%
- inhibition at 0.1 µM (WNK1): 4%
- inhibition at 0.1 µM (WNK3): 2%
